According to ChEMBL document CHEMBL4342421, “Current scenario of tetrazole hybrids for antibacterial activity” (Eur J Med Chem, 2019):

Key:
Salmonella typhimurium = assay: Antimicrobial activity against Salmonella typhimurium; type: functional, Salmonella enterica subsp. enterica serovar Typhimurium; conditions: Salmonella enterica
SiHa = assay: Growth inhibition of human SiHa cells; type: functional
Bacillus subtilis [1] = assay: Antimicrobial activity against Bacillus subtilis; type: functional
Escherichia coli [2] = assay: Antimicrobial activity against Escherichia coli; type: functional
MDA-MB-231 = assay: Growth inhibition of human MDA-MB-231 cells; type: functional
Priestia megaterium = assay: Antimicrobial activity against Bacillus megaterium; type: functional
PANC-1 = assay: Growth inhibition of human PANC1 cells; type: functional
Micrococcus luteus [3] = assay: Antibacterial activity against Micrococcus luteus; type: functional
Staphylococcus aureus [4] = assay: Antimicrobial activity against Staphylococcus aureus ATCC 25923 assessed as zone of inhibition at 100 ug/ml after 24 hrs by disc diffusion method; type: functional; conditions: ATCC 25923, 24 h, read-out: IZ
Streptococcus agalactiae = assay: Antimicrobial activity against Streptococcus agalactiae 55118 assessed as zone of inhibition at 100 ug/ml after 24 hrs by disc diffusion method; type: functional; conditions: Streptococcus agalactiae, 55118, 24 h; read-out: IZ
Klebsiella pneumoniae = assay: Antimicrobial activity against Klebsiella pneumoniae ATCC 700603 assessed as zone of inhibition at 100 ug/ml after 24 hrs by disc diffusion method; type: functional; conditions: ATCC 700603, 24 h, read-out: IZ
Pseudomonas aeruginosa [5] = assay: Antimicrobial activity against Pseudomonas aeruginosa; type: functional
Candida tropicalis = assay: Antifungal activity against Candida tropicalis; type: functional
Staphylococcus aureus [6] = assay: Antimicrobial activity against Staphylococcus aureus; type: functional
Nakaseomyces glabratus = assay: Antifungal activity against Candida glabrata; type: functional
Candida albicans [7] = assay: Antifungal activity against Candida albicans; type: functional
Pichia norvegensis = assay: Antifungal activity against Candida mycoderma after 24 hrs; type: functional
Aspergillus flavus = assay: Antifungal activity against Aspergillus flavus after 24 hrs; type: functional
Cyberlindnera jadinii = assay: Antifungal activity against Candida utilis after 24 hrs; type: functional; conditions: Williopsis jadinii
Shigella dysenteriae = assay: Antimicrobial activity against Shigella dysenteriae after 24 hrs by two-fold broth serial dilution method; type: functional
Candida albicans [8] = assay: Antifungal activity against Candida albicans ATCC 76615 after 24 hrs; type: functional; conditions: ATCC 76615, 24 h
Pseudomonas aeruginosa [9] = assay: Antimicrobial activity against Pseudomonas aeruginosa ATCC 27853 after 24 hrs by two-fold broth serial dilution method; type: functional; conditions: ATCC 27853, 24 h
Bacillus subtilis [10] = assay: Antibacterial activity against Bacillus subtilis ATCC 21216 after 24 hrs by two-fold broth serial dilution method; type: functional; conditions: ATCC 21216, 24 h
Saccharomyces cerevisiae = assay: Antifungal activity against Saccharomyces cerevisiae after 24 hrs; type: functional
Escherichia coli [11] = assay: Antimicrobial activity against Escherichia coli JM 109 after 24 hrs by two-fold broth serial dilution method; type: functional; conditions: JM 109, 24 h
Staphylococcus aureus [12] = assay: Antibacterial activity against methicillin resistant Staphylococcus aureus N315 after 24 hrs by two-fold broth serial dilution method; type: functional; conditions: N315, 24 h
Micrococcus luteus [13] = assay: Antibacterial activity against Micrococcus luteus ATCC 4698 after 24 hrs by two-fold broth serial dilution method; type: functional; conditions: ATCC 4698, 24 h
Escherichia coli [14] = assay: Antimicrobial activity against Escherichia coli ATCC 25922 after 48 hrs by NCCLS protocol based method; type: functional; conditions: ATCC 25922, 48 h
Candida albicans [15] = assay: Antifungal activity against Candida albicans MTCC 277 after 48 hrs by NCCLS protocol based method; type: functional; conditions: MTCC 277, 48 h
Bacillus subtilis [16] = assay: Antimicrobial activity against Bacillus subtilis NCIM 2250 after 48 hrs by NCCLS protocol based method; type: functional; conditions: NCIM 2250, 48 h
Aspergillus niger [17] = assay: Antifungal activity against Aspergillus niger NCIM 545 after 48 hrs by NCCLS protocol based method; type: functional; conditions: NCIM 545, 48 h
Candida albicans [18] = assay: Antifungal activity against Candida albicans assessed as zone of inhibition at 50 ug/ml; type: functional; conditions: read-out: IZ
Aspergillus niger [19] = assay: Antifungal activity against Aspergillus niger assessed as zone of inhibition at 50 ug/ml; type: functional; conditions: read-out: IZ
Staphylococcus aureus [20] = assay: Antimicrobial activity against Staphylococcus aureus assessed as zone of inhibition at 50 ug/ml; type: functional; conditions: read-out: IZ
Escherichia coli [21] = assay: Antimicrobial activity against Escherichia coli assessed as zone of inhibition at 50 ug/ml; type: functional; conditions: read-out: IZ
Aspergillus niger [22] = assay: Antifungal activity against Aspergillus niger; type: functional

O=C(O)c1cn(C2CC2)c2cc(N3CCN(C(=O)CCSc4nnnn4-c4ccc(C(F)(F)F)cc4)CC3)c(F)cc2c1=O
≤ 1000 nM: GI50 (SiHa) | GI50 (MDA-MB-231) | GI50 (PANC-1)
15.6 µg/mL: MIC (Salmonella typhimurium) | MIC (Bacillus subtilis [1]) | MIC (Escherichia coli [2]) | MIC (Priestia megaterium) | MIC (Micrococcus luteus [3])

O=C(O)c1cn(C2CC2)c2cc(N3CCN(C(=O)CCSc4nnnn4-c4ccccc4)CC3)c(F)cc2c1=O
15.6 µg/mL: MIC (Salmonella typhimurium) | MIC (Bacillus subtilis [1]) | MIC (Escherichia coli [2]) | MIC (Priestia megaterium) | MIC (Micrococcus luteus [3])
≤ 1000 nM: GI50 (SiHa) | GI50 (MDA-MB-231) | GI50 (PANC-1)

COc1nc(N)nc(OC)c1Sc1nnnn1CC1CCCCC1
10 to 24 mm: zone of inhibition at 100 µg/mL (Staphylococcus aureus [4]) | zone of inhibition at 100 µg/mL (Streptococcus agalactiae) | zone of inhibition at 100 µg/mL (Klebsiella pneumoniae)

Cc1cc2c(=O)c(OCc3nnn[nH]3)c(-c3ccc(F)cc3)oc2cc1Cl
50 to 400 µg/mL: MIC (Pseudomonas aeruginosa [5]) | MIC (Staphylococcus aureus [6]) | MIC (Bacillus subtilis [1]) | MIC (Escherichia coli [2])
12.5 to 25 µg/mL: MIC (Candida tropicalis) | MIC (Nakaseomyces glabratus) | MIC (Candida albicans [7])

Cc1cc(=O)oc2cc(OCC(O)Cn3nnnc3C)ccc12 (configuration not stated)
4 to 512 µg/mL: MIC (Pichia norvegensis) | MIC (Aspergillus flavus) | MIC (Cyberlindnera jadinii) | MIC (Shigella dysenteriae) | MIC (Candida albicans [8]) | MIC (Pseudomonas aeruginosa [9]) | MIC (Bacillus subtilis [10]) | MIC (Saccharomyces cerevisiae) | MIC (Escherichia coli [11]) | MIC (Staphylococcus aureus [12]) | MIC (Micrococcus luteus [13])

CCn1cc(C(=O)O)c(=O)c2cnc(N3CCN(C(=O)CCSc4nnnn4-c4ccc(Br)cc4)CC3)nc21
70 to 220 nM: GI50 (SiHa) | GI50 (MDA-MB-231) | GI50 (PANC-1)

CCOC(=O)C(C#N)C(c1cc2ccc(CC)cc2n2nnnc12)P(=O)(OCC)OCC (configuration not stated)
10 to 20 µg/mL: MIC (Escherichia coli [14]) | MIC (Candida albicans [15]) | MIC (Bacillus subtilis [16]) | MIC (Aspergillus niger [17])

CCOC(=O)C(C#N)C(c1cc2c(C)cccc2n2nnnc12)P(=O)(OCC)OCC (configuration not stated)
10 to 20 µg/mL: MIC (Escherichia coli [14]) | MIC (Candida albicans [15]) | MIC (Bacillus subtilis [16]) | MIC (Aspergillus niger [17])

COc1cc(-n2nnnc2SCCC(=O)N2CCN(c3cc4c(cc3F)c(=O)c(C(=O)O)cn4C3CC3)CC2)cc(OC)c1OC
15.6 µg/mL: MIC (Salmonella typhimurium) | MIC (Bacillus subtilis [1]) | MIC (Escherichia coli [2]) | MIC (Priestia megaterium) | MIC (Micrococcus luteus [3])
≤ 1000 nM: GI50 (SiHa) | GI50 (MDA-MB-231) | GI50 (PANC-1)

CCCn1nnnc1Sc1c(OC)nc(N)nc1OC
24 mm: zone of inhibition at 100 µg/mL (Staphylococcus aureus [4]) | zone of inhibition at 100 µg/mL (Streptococcus agalactiae) | zone of inhibition at 100 µg/mL (Klebsiella pneumoniae)

O=C(O)c1cn(C2CC2)c2cc(N3CCN(C(=O)CCSc4nnnn4-c4ccc(Br)cc4)CC3)c(F)cc2c1=O
15.6 µg/mL: MIC (Salmonella typhimurium) | MIC (Bacillus subtilis [1]) | MIC (Escherichia coli [2]) | MIC (Priestia megaterium) | MIC (Micrococcus luteus [3])
≤ 1000 nM: GI50 (SiHa) | GI50 (MDA-MB-231) | GI50 (PANC-1)

CCOC(=O)C(C#N)C(c1cc2ccccc2n2nnnc12)P(=O)(OCC)OCC (configuration not stated)
10 to 20 µg/mL: MIC (Escherichia coli [14]) | MIC (Candida albicans [15]) | MIC (Bacillus subtilis [16]) | MIC (Aspergillus niger [17])

CCOC(=O)C(C#N)C(c1cc2c(OC)cccc2n2nnnc12)P(=O)(OCC)OCC (configuration not stated)
10 to 20 µg/mL: MIC (Escherichia coli [14]) | MIC (Candida albicans [15]) | MIC (Bacillus subtilis [16]) | MIC (Aspergillus niger [17])

CC[C@H]1OC(=O)[C@H](C)[C@@H](O[C@H]2C[C@@](C)(OC)[C@@H](O)[C@H](C)O2)[C@H](C)[C@@H](O[C@@H]2O[C@H](C)C[C@H](N(C)C)[C@H]2O)[C@](C)(O)C[C@@H](C)C(=O)[C@H](C)[C@@H](O)[C@]1(C)O [ERYTHROMYCIN]
10 to 24 mm: zone of inhibition at 100 µg/mL (Staphylococcus aureus [4]) | zone of inhibition at 100 µg/mL (Streptococcus agalactiae) | zone of inhibition at 100 µg/mL (Klebsiella pneumoniae)

CCOC(=O)C(C#N)C(c1cc2ccc(OC)cc2n2nnnc12)P(=O)(OCC)OCC (configuration not stated)
10 µg/mL: MIC (Escherichia coli [14]) | MIC (Candida albicans [15]) | MIC (Bacillus subtilis [16]) | MIC (Aspergillus niger [17])

O=C(/C=C/c1ccccc1Cl)n1nnnc1-c1ccccc1
8 to 15 mm: zone of inhibition at 50 µg/mL (Candida albicans [18]) | zone of inhibition at 50 µg/mL (Aspergillus niger [19]) | zone of inhibition at 50 µg/mL (Staphylococcus aureus [20]) | zone of inhibition at 50 µg/mL (Escherichia coli [21])

O=C(/C=C/c1ccc(Cl)cc1)n1nnnc1-c1ccccc1
8 to 15 mm: zone of inhibition at 50 µg/mL (Candida albicans [18]) | zone of inhibition at 50 µg/mL (Aspergillus niger [19]) | zone of inhibition at 50 µg/mL (Staphylococcus aureus [20]) | zone of inhibition at 50 µg/mL (Escherichia coli [21])

O=C(O)c1cn(C2CC2)c2cc(N3CCNCC3)c(F)cc2c1=O [CIPROFLOXACIN]
19 to 20 mm: zone of inhibition at 50 µg/mL (Candida albicans [18]) | zone of inhibition at 50 µg/mL (Aspergillus niger [19]) | zone of inhibition at 50 µg/mL (Staphylococcus aureus [20]) | zone of inhibition at 50 µg/mL (Escherichia coli [21])
25 to 50 µg/mL: MIC (Salmonella typhimurium) | MIC (Pseudomonas aeruginosa [5]) | MIC (Staphylococcus aureus [6]) | MIC (Aspergillus niger [22]) | MIC (Escherichia coli [2]) | MIC (Priestia megaterium) | MIC (Candida albicans [7]) | MIC (Micrococcus luteus [3])
